{
  "source": "ChEMBL document CHEMBL1201862",
  "about": "“PubChem BioAssay data set” (2004)",
  "experiment_in_all_cases": "growth of human tumour cells (NCI), 48 h",
  "key": {"786-0": {"tested_on": "786-0"}, "A498": {"tested_on": "A498"}, "A549": {"tested_on": "A549"}, "ACHN": {"tested_on": "ACHN"}, "CAKI-1": {"tested_on": "CAKI-1"}, "CCRF-CEM": {"tested_on": "CCRF-CEM"}, "COLO 205": {"tested_on": "COLO 205"}, "DLD-1": {"tested_on": "DLD-1"}, "DMS-114": {"tested_on": "DMS-114"}, "DMS-273": {"tested_on": "DMS-273"}, "EKVX": {"tested_on": "EKVX"}, "HCT-116": {"tested_on": "HCT-116"}, "HCT-15": {"tested_on": "HCT-15"}, "HL-60": {"tested_on": "HL-60"}, "HOP-18": {"tested_on": "HOP-18"}, "HOP-62": {"tested_on": "HOP-62"}, "HOP-92": {"tested_on": "HOP-92"}, "HT-29": {"tested_on": "HT-29"}, "K562": {"tested_on": "K562"}, "KM-20L2": {"tested_on": "KM-20L2"}, "KM12": {"tested_on": "KM12"}, "LOX IMVI": {"tested_on": "LOX IMVI"}, "LXFL 529": {"tested_on": "LXFL 529"}, "M14": {"tested_on": "M14"}, "M19-MEL": {"tested_on": "M19-MEL"}, "MOLT-4": {"tested_on": "MOLT-4"}, "Malme-3M": {"tested_on": "Malme-3M"}, "NCI-H226": {"tested_on": "NCI-H226"}, "NCI-H460": {"tested_on": "NCI-H460"}, "NCI-H522": {"tested_on": "NCI-H522"}, "OVCAR-3": {"tested_on": "OVCAR-3"}, "OVCAR-4": {"tested_on": "OVCAR-4"}, "OVCAR-5": {"tested_on": "OVCAR-5"}, "OVCAR-8": {"tested_on": "OVCAR-8"}, "RPMI-8226": {"tested_on": "RPMI-8226"}, "RXF 393": {"tested_on": "RXF 393"}, "RXF 631": {"tested_on": "RXF 631"}, "SF-268": {"tested_on": "SF-268"}, "SF-295": {"tested_on": "SF-295"}, "SK-MEL-28": {"tested_on": "SK-MEL-28"}, "SK-MEL-2": {"tested_on": "SK-MEL-2"}, "SK-MEL-5": {"tested_on": "SK-MEL-5"}, "SK-OV-3": {"tested_on": "SK-OV-3"}, "SN12C": {"tested_on": "SN12C"}, "SNB-19": {"tested_on": "SNB-19"}, "SNB-75": {"tested_on": "SNB-75"}, "SNB-78": {"tested_on": "SNB-78"}, "SR": {"tested_on": "SR"}, "SW-620": {"tested_on": "SW-620"}, "TK-10": {"tested_on": "TK-10"}, "U-251": {"tested_on": "U-251"}, "UACC-257": {"tested_on": "UACC-257"}, "UACC-62": {"tested_on": "UACC-62"}, "UO-31": {"tested_on": "UO-31"}, "XF498": {"tested_on": "XF498"}},
  "note": "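Values below derive from 48-hour exposures of cells grown in 96-well plates, with endpoints linearly interpolated between the two concentrations bracketing the appropriate inhibition level. GI50 marks 50% less growth.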 Activity calls are given as the source filed them. Cut-off read from the data, not from the text of the source: active = GI50 up to about 1.1 µM and inactive = higher.",
  "data": [
    {"smiles": "NCc1cccc(O)c1O", "values": [
      {"measurement": "GI50", "setting": "786-0", "value": "> 100 µM (inactive)"},
      {"measurement": "GI50", "setting": "A498", "value": "> 100 µM (inactive)"},
      {"measurement": "GI50", "setting": "A549", "value": "> 100 µM (inactive)"},
      {"measurement": "GI50", "setting": "ACHN", "value": "> 100 µM (inactive)"},
      {"measurement": "GI50", "setting": "CAKI-1", "value": "> 100 µM (inactive)"},
      {"measurement": "GI50", "setting": "CCRF-CEM", "value": "55.3 µM (inactive)"},
      {"measurement": "GI50", "setting": "COLO 205", "value": "> 100 µM (inactive)"},
      {"measurement": "GI50", "setting": "DLD-1", "value": "90.4 µM (inactive)"},
      {"measurement": "GI50", "setting": "DMS-114", "value": "> 100 µM (inactive)"},
      {"measurement": "GI50", "setting": "DMS-273", "value": "> 100 µM (inactive)"},
      {"measurement": "GI50", "setting": "EKVX", "value": "> 100 µM (inactive)"},
      {"measurement": "GI50", "setting": "HCT-116", "value": "79.8 µM (inactive)"},
      {"measurement": "GI50", "setting": "HCT-15", "value": "> 100", "unit": "µM"},
      {"measurement": "GI50", "setting": "HL-60", "value": "38.7 µM (inactive)"},
      {"measurement": "GI50", "setting": "HOP-18", "value": "> 100 µM (inactive)"},
      {"measurement": "GI50", "setting": "HOP-62", "value": "> 100 µM (inactive)"},
      {"measurement": "GI50", "setting": "HOP-92", "value": "> 100 µM (inactive)"},
      {"measurement": "GI50", "setting": "HT-29", "value": "> 100 µM (inactive)"},
      {"measurement": "GI50", "setting": "K562", "value": "> 100 µM (inactive)"},
      {"measurement": "GI50", "setting": "KM-20L2", "value": "> 100 µM (inactive)"},
      {"measurement": "GI50", "setting": "KM12", "value": "> 100 µM (inactive)"},
      {"measurement": "GI50", "setting": "LOX IMVI", "value": "> 100 µM (inactive)"},
      {"measurement": "GI50", "setting": "LXFL 529", "value": "> 100 µM (inactive)"},
      {"measurement": "GI50", "setting": "M14", "value": "> 100 µM (inactive)"},
      {"measurement": "GI50", "setting": "M19-MEL", "value": "48.9 µM (inactive)"},
      {"measurement": "GI50", "setting": "MOLT-4", "value": "> 100 µM (inactive)"},
      {"measurement": "GI50", "setting": "Malme-3M", "value": "> 100 µM (inactive)"},
      {"measurement": "GI50", "setting": "NCI-H226", "value": "> 100 µM (inactive)"},
      {"measurement": "GI50", "setting": "NCI-H460", "value": "> 100 µM (inactive)"},
      {"measurement": "GI50", "setting": "NCI-H522", "value": "> 100 µM (inactive)"},
      {"measurement": "GI50", "setting": "OVCAR-3", "value": "> 100 µM (inactive)"},
      {"measurement": "GI50", "setting": "OVCAR-4", "value": "> 100 µM (inactive)"},
      {"measurement": "GI50", "setting": "OVCAR-5", "value": "> 100 µM (inactive)"},
      {"measurement": "GI50", "setting": "OVCAR-8", "value": "> 100 µM (inactive)"},
      {"measurement": "GI50", "setting": "RPMI-8226", "value": "> 100 µM (inactive)"},
      {"measurement": "GI50", "setting": "RXF 393", "value": "> 100 µM (inactive)"},
      {"measurement": "GI50", "setting": "RXF 631", "value": "> 100 µM (inactive)"},
      {"measurement": "GI50", "setting": "SF-268", "value": "> 100 µM (inactive)"},
      {"measurement": "GI50", "setting": "SF-295", "value": "> 100 µM (inactive)"},
      {"measurement": "GI50", "setting": "SK-MEL-28", "value": "> 100 µM (inactive)"},
      {"measurement": "GI50", "setting": "SK-MEL-2", "value": "> 100 µM (inactive)"},
      {"measurement": "GI50", "setting": "SK-MEL-5", "value": "> 100 µM (inactive)"},
      {"measurement": "GI50", "setting": "SK-OV-3", "value": "> 100 µM (inactive)"},
      {"measurement": "GI50", "setting": "SN12C", "value": "> 100 µM (inactive)"},
      {"measurement": "GI50", "setting": "SNB-19", "value": "> 100 µM (inactive)"},
      {"measurement": "GI50", "setting": "SNB-75", "value": "> 100 µM (inactive)"},
      {"measurement": "GI50", "setting": "SNB-78", "value": "> 100 µM (inactive)"},
      {"measurement": "GI50", "setting": "SR", "value": "> 100 µM (inactive)"},
      {"measurement": "GI50", "setting": "SW-620", "value": "> 100 µM (inactive)"},
      {"measurement": "GI50", "setting": "TK-10", "value": "> 100 µM (inactive)"},
      {"measurement": "GI50", "setting": "U-251", "value": "> 100 µM (inactive)"},
      {"measurement": "GI50", "setting": "UACC-257", "value": "> 100 µM (inactive)"},
      {"measurement": "GI50", "setting": "UACC-62", "value": "> 100 µM (inactive)"},
      {"measurement": "GI50", "setting": "UO-31", "value": "> 100 µM (inactive)"},
      {"measurement": "GI50", "setting": "XF498", "value": "> 100 µM (inactive)"}
    ]}
  ]
}
